Results on 18 molecules are retold here after US8217073B2, “Pyrrole derivatives as therapeutic compounds” (Myrexis, Inc., priority 2005, dated 2012).

pIC50: −log10 of the molar value. Several values for one entry are separate records, joined by “and”; a condition that tells them apart may be missing. Equal entries are not always repeated.

One experiment deals with Aβ42 secretion. Description: Aβ42 secretion by H4 cells expressing APP695, sandwich ELISA. It is filed as cell-based, human. Particulars: medium collected at 24 or 48 hours, several numbers = independent sets of assays; for pIC50: about 1 μM to about 100 μM; for inhibition at 100 µM / % Inhibition of Aβ42 Secretion @ 100 μM: test compound 100 μM vs DMSO control. The method, then: (§1) The present invention provides compositions and methods for lowering Aβ42 levels. To test whether compounds and compositions are capable of modulating Aβ levels in cultured cells, sandwich enzyme-linked immunosorbent assays (ELISAs) are employed to measure secreted Aβ (Aβ42 and/or Aβ40 levels). In this example, H4 cells expressing wide type APP695 are seeded at 200,000 cells per well in 6 well plates, and incubated at 37° C. with 5% CO2 overnight. Cells are treated with 1.5 ml medium containing vehicle (DMSO) or a test compound at 1.25 μM, 2.5 μM, 5.0 μM and 10.0 μM (as well as other concentration if desirable) for 24 hours or 48 hours. The supernatant from treated cells is collected into eppendorf tubes and frozen at −80° C. for future analysis.
(§2) The amyloid peptide standard is reconstituted and frozen samples are thawed. The samples and standards are diluted with appropriate diluents and the plate is washed 4 times with Working Wash Buffer and patted dry on a paper towel. 100 μL per well of peptide standards, controls, and dilutions of samples to be analyzed is added. The plate is incubated for 2 hours while shaking on an orbital plate shaker at RT. The plate is then washed 4 times with Working Wash Buffer and patted dry on a paper towel. Detection Antibody Solution is poured into a reservoir and 100 μL/well of Detection Antibody Solution is immediately added to the plate. The plate is incubated at RT for 2 hours while shaking and then washed four times with Working Wash Buffer and patted dry on a paper towel. Secondary Antibody Solution is then poured into a reservoir and 100 μL/well of Secondary Antibody Solution is immediately added to the plate. The plate is incubated at RT for 2 hours with shaking, washed 5 times with Working Wash Buffer, and patted dry on a paper towel.
(§3) 100 μL of stabilized chromogen is added to each well and the liquid in the wells begins to turn blue. The plate is incubated for 30 minutes at room temperature and in the dark. 100 μL of stop solution is added to each well and the plate is tapped gently to mix resulting in a change of solution color from blue to yellow. The absorbance of each well is read at 450 nm having blanked the plate reader against a chromogen blank composed of 100 μL each of stabilized chromogen and stop solution. The plate is read within 2 hours of adding the stop solution. The absorbance of the standards is plotted against the standard concentration and the concentrations of unknown samples and controls are calculated.
(§4) The present invention provides compositions and methods for lowering Aβ42 levels. To test whether compounds and compositions are capable of modulating Aβ levels, sandwich enzyme-linked immunosorbent assays (ELISAs) is employed to measure secreted Aβ42 and/or Aβ40 levels. In this example, H4 cells expressing wide type APP695 are seeded at 200,000 cells per well in 6 well plates, and incubated at 37° C. with 5% CO2 overnight. Cells are treated with 1.5 mL medium containing vehicle (DMSO) or a test compound at 1.25 μM, 2.5 μM, 5.0 μM and 10.0 μM concentration for 24 hours or 48 hours. The supernatant from treated cells is collected into eppendorf tubes and frozen at −80° C. for future analysis.
(§5) 130 μL per well of samples, standards, and blanks is added to a 96-well polypropylene plate. […] of samples, standards, and blanks from the polypropylene plate is added to the antibody-coated plates. The strip-holder with the appropriate number of strips is applied to the antibody-coated plates and the strips are covered with an adhesive sealer. The plate is then incubated 3 hours at room temperature while shaking on an orbital plate shaker.
(§6) The first antibody solution is prepared with Conjugate Diluent 1 at 1:100 ratio. Each well of the antibody-coated plates is washed 5 times with 400 μL washing solution and 100 μL of the prepared first antibody solution is added to each well. […]

In another experiment the test system is Aβ40 secretion. Description: Aβ40 secretion by H4 cells expressing APP695, sandwich ELISA. Particulars: medium collected at 24 or 48 hours, several numbers = independent sets of assays; for pIC50: about 1 μM to about 100 μM; for inhibition at 100 µM / % Inhibition of Aβ40 Secretion @ 100 μM: test compound 100 μM vs DMSO control. It is filed as cell-based, human. How it is done: as §1, §2, §3, §4, §5, §6
(ELISA stands for enzyme-linked immunosorbent assay.)

The pIC50 is −log10 of the IC50, conventionally taken in molar units. By inhibition is commonly meant the relative decrease from the control value, in per cent. With `Cc1c(-c2ccccc2)cc(-c2ccccc2)n1-c1ccc(C(=O)O)cc1` [Compound 39, 4-(2-Methyl-3,5-diphenyl-pyrrol-1-yl)-benzoic acid], in the experiment on Aβ42 secretion (Homo sapiens), the pIC50 was 4.30 and the inhibition at 100 µM was determined as 86%. Moreover, in the experiment on Aβ40 secretion (Homo sapiens), the pIC50 was 4.27 and the inhibition at 100 µM was 92%.

In the case of `CC(C)c1c(-c2ccccc2)cc(-c2ccccc2)n1-c1ccc(CCCC(=O)O)cc1` [Compound 32, 4-[4-(2-Isopropyl-3,5-diphenyl-pyrrol-1-yl)-phenyl]-butyric acid], in the experiment on Aβ42 secretion (Homo sapiens), the pIC50 was 4.66 and the inhibition at 100 µM came to 98%. In the experiment on Aβ40 secretion (Homo sapiens), the pIC50 was 4.39 and the inhibition at 100 µM is 103%.

Consider `Cc1c(-c2ccccc2)cc(-c2ccc(C(F)(F)F)cc2)n1-c1cccc(CCC(=O)O)c1` [Compound 15, 3-{3-[2-Methyl-3-phenyl-5-(4-trifluoromethyl-phenyl)-pyrrol-1-yl]-phenyl}-propionic acid], for which the pIC50 with Aβ42 secretion (Homo sapiens) was 4.68; in the experiment on Aβ40 secretion (Homo sapiens), 4.09. Besides, the inhibition at 100 µM in the experiment with Aβ42 secretion (Homo sapiens) is 96%; with Aβ40 secretion (Homo sapiens) it was 63%.

With `CCOC(=O)c1cc(CCc2ccccc2)n(-c2ccc(CCCC(=O)O)cc2)c1-c1ccccc1` [Compound 22, 1-[4-(3-Carboxy-propyl)-phenyl]-5-phenethyl-2-phenyl-1H-pyrrole-3-carboxylic acid ethyl ester], the pIC50 in the experiment on Aβ42 secretion (Homo sapiens) is 4.26; in the experiment on Aβ40 secretion (Homo sapiens) it was 4.40. In addition, the figures for the inhibition at 100 µM in the experiment on Aβ42 secretion (Homo sapiens) and with Aβ40 secretion (Homo sapiens) were 68% and 65%, respectively.

On to `O=C(O)CCCc1ccc(-n2c(-c3ccccc3)cc(-c3ccccc3)c2C2CC2)cc1` [Compound 35, 4-[4-(2-Cyclopropyl-3,5-diphenyl-pyrrol-1-yl)-phenyl]-butyric acid], for which the pIC50 is 4.54 in the experiment with Aβ42 secretion (Homo sapiens), 4.62 with Aβ42 secretion, 4.10 with Aβ40 secretion (Homo sapiens) and 4.17 in the experiment with Aβ40 secretion. Further, the inhibition at 100 µM with Aβ42 secretion (Homo sapiens) is 83%. Moreover, in the experiment with Aβ42 secretion, the “% Inhibition of Aβ42 Secretion @ 100 μM” value was determined as 93%. Also, the “% Inhibition of Aβ40 Secretion @ 100 μM” value with Aβ40 secretion was 73% and 96%.

In the case of `Cc1c(-c2cccc(C(F)(F)F)c2)cc(-c2ccccc2)n1-c1cccc(CCC(=O)O)c1` [Compound 9, 3-{3-[2-Methyl-5-phenyl-3-(3-trifluoromethyl-phenyl)-pyrrol-1-yl]-phenyl}-propionic acid], in the experiment with Aβ42 secretion (Homo sapiens), the negative logarithm of the IC50 (pIC50) is 4.82 and the inhibition at 100 µM was 82%. Besides, in the experiment with Aβ40 secretion (Homo sapiens), the pIC50 is 4.55 and the inhibition at 100 µM worked out at 86%.

`CC(C)c1c(-c2ccccc2)cc(-c2ccccc2)n1-c1cccc(CCC(=O)O)c1` [Compound 31, 3-[3-(2-Isopropyl-3,5-diphenyl-pyrrol-1-yl)-phenyl]-propionic acid]: the pIC50 in the experiment on Aβ42 secretion (Homo sapiens) is 4.68; in the experiment with Aβ40 secretion (Homo sapiens) it was 4.64. In addition, the inhibition at 100 µM is 95% with Aβ42 secretion (Homo sapiens) and 106% in the experiment with Aβ40 secretion (Homo sapiens).

`Cc1c(-c2ccccc2)cc(-c2ccc(C(F)(F)F)cc2)n1-c1ccc(CCCC(=O)O)cc1` [Compound 16, 4-{4-[2-Methyl-3-phenyl-5-(4-trifluoromethyl-phenyl)-pyrrol-1-yl]-phenyl}-butyric acid]: in the experiment with Aβ42 secretion (Homo sapiens), the pIC50 was 5.30 and the inhibition at 100 µM worked out at 97%. Besides, in the experiment with Aβ42 secretion, the pIC50 was 5.00 and the “% Inhibition of Aβ42 Secretion @ 100 μM” value is listed as 102%. For the same molecule, in the experiment with Aβ40 secretion (Homo sapiens), the inhibition at 100 µM stood at 78%. The “% Inhibition of Aβ40 Secretion @ 100 μM” value in the experiment with Aβ40 secretion is 93%.

For the molecule `Cc1c(-c2ccccc2)cc(-c2ccccc2)n1-c1cccc(C(=O)O)c1` [Compound 2, 3-(2-Methyl-3,5-diphenyl-pyrrol-1-yl)-benzoic acid], in the experiment on Aβ42 secretion (Homo sapiens), the pIC50 is 4.32 and the inhibition at 100 µM turned out to be 76%. In addition, in the experiment on Aβ40 secretion (Homo sapiens), the pIC50 is under 4.00 and the inhibition at 100 µM came out at 36%.

Regarding `O=C(O)CCc1cccc(-n2c(-c3ccccc3)cc(-c3ccccc3)c2C2CC2)c1` [Compound 34, 3-[3-(2-Cyclopropyl-3,5-diphenyl-pyrrol-1-yl)-phenyl]-propionic acid], in the experiment with Aβ42 secretion (Homo sapiens), the pIC50 was 4.52 and the inhibition at 100 µM was determined as 95%. Further, in the experiment on Aβ40 secretion (Homo sapiens), the pIC50 is 4.32 and the inhibition at 100 µM is 100%.

`O=C(O)CCCc1ccc(-n2c(CCc3ccccc3)ccc2-c2ccccc2)cc1` [Compound 25, 4-[4-(2-Phenethyl-5-phenyl-pyrrol-1-yl)-phenyl]-butyric acid]: in the experiment with Aβ42 secretion (Homo sapiens), the pIC50 was under 4.00 and the inhibition at 100 µM was 40%. Further, in the experiment on Aβ40 secretion (Homo sapiens), the pIC50 is under 4.00 and the inhibition at 100 µM turned out to be 30%.

As for `CC(C)(C)Cc1c(-c2ccccc2)cc(-c2ccccc2)n1-c1cccc(CCC(=O)O)c1` [Compound 37, 3-{3-[2-(2,2-Dimethyl-propyl)-3,5-diphenyl-pyrrol-1-yl]-phenyl}-propionic acid], in the experiment on Aβ42 secretion (Homo sapiens), the pIC50 was 5.05 and the inhibition at 100 µM turned out to be 100%. In addition, in the experiment on Aβ42 secretion, the pIC50 is 5.15 and the “% Inhibition of Aβ42 Secretion @ 100 μM” value came out at 99%. Further, in the experiment on Aβ40 secretion (Homo sapiens), the pIC50 was 4.52 and the inhibition at 100 µM worked out at 98%. Moreover, in the experiment on Aβ40 secretion, the pIC50 is 4.49 and the “% Inhibition of Aβ40 Secretion @ 100 μM” value was 104%.

On to `CCOC(=O)c1cc(CCc2ccccc2)n(-c2cccc(CCC(=O)O)c2)c1-c1ccccc1` [Compound 21, 1-[3-(2-Carboxy-ethyl)-phenyl]-5-phenethyl-2-phenyl-1H-pyrrole-3-carboxylic acid ethyl ester], for which the pIC50 in the experiment on Aβ42 secretion (Homo sapiens) is 4.26; in the experiment on Aβ40 secretion (Homo sapiens) it was under 4.00. In addition, the results for the inhibition at 100 µM with Aβ42 secretion (Homo sapiens) and with Aβ40 secretion (Homo sapiens) were 66% and 38%, respectively.

For the molecule `Cc1c(-c2ccccc2)cc(-c2ccc(C(F)(F)F)cc2)n1-c1cccc(C(=O)O)c1` [Compound 14, 3-[2-Methyl-3-phenyl-5-(4-trifluoromethyl-phenyl)-pyrrol-1-yl]-benzoic acid], the inhibition at 100 µM with Aβ42 secretion (Homo sapiens) turned out to be 96%. Moreover, the “% Inhibition of Aβ42 Secretion @ 100 μM” value with Aβ42 secretion is 101% and 99% and 92%.

As to `Cc1c(-c2ccccc2)cc(-c2ccc(Cl)c(Cl)c2)n1-c1cccc(C(=O)O)c1` [Compound 17, 3-[5-(3,4-Dichloro-phenyl)-2-methyl-3-phenyl-pyrrol-1-yl]-benzoic acid], in the experiment with Aβ42 secretion (Homo sapiens), the pIC50 is 5.00 and the inhibition at 100 µM was determined as 83%. In the experiment with Aβ40 secretion (Homo sapiens), the pIC50 was under 4.00 and the inhibition at 100 µM was 10%.

With `CCc1c(-c2ccccc2)cc(-c2ccccc2)n1-c1cccc(CCC(=O)O)c1` [Compound 12, 3-[3-(2-Ethyl-3,5-diphenyl-pyrrol-1-yl)-phenyl]-propionic acid], in the experiment with Aβ42 secretion (Homo sapiens), the pIC50 is 4.47 and the inhibition at 100 µM was found to be 85%. In the experiment on Aβ40 secretion (Homo sapiens), the pIC50 was under 4.00 and the inhibition at 100 µM amounted to 27%.

Turning to `Cc1c(-c2ccccc2)cc(-c2ccccc2)n1-c1cccc(CCC(=O)O)c1` [Compound 5, 3-[3-(2-Methyl-3,5-diphenyl-pyrrol-1-yl)-phenyl]-propionic acid], in the experiment on Aβ42 secretion (Homo sapiens), the pIC50 is 4.00 and the inhibition at 100 µM was determined as 55%. In the experiment on Aβ40 secretion (Homo sapiens), the pIC50 is under 4.00 and the inhibition at 100 µM was 31%.

`O=C(O)CCc1cccc(-n2c(CCc3ccccc3)ccc2-c2ccccc2)c1` [Compound 24, 3-[3-(2-Phenethyl-5-phenyl-pyrrol-1-yl)-phenyl]-propionic acid]: the pIC50 was 4.28 with Aβ42 secretion (Homo sapiens) and 4.00 in the experiment on Aβ40 secretion (Homo sapiens). For the same molecule, the inhibition at 100 µM in the experiment with Aβ42 secretion (Homo sapiens) amounted to 73%; with Aβ40 secretion (Homo sapiens), 52%.
